≈ marks a conversion by molar mass, not a printed value.
Columns and labels:
Aspergillus flavus = assay: Disk diffusion, Aspergillus flavus; type: cell-based; settings: Fungi, 8.0 mm disks, 10 μL
Experimental: (§1) The disk diffusion method was used for determination of the antimicrobial activity using ampicillin, gentamicin and amphotericin B as reference drugs. The results were recorded for each compounds as the average diameter as inhibition zones (IZ) of bacterial or fungal growth around the discs in mm as shown in Table 2.
(§2) Antimicrobial activities were carried out against highly pathogenic strains; three strains of Gram positive bacteria (Bacillus subtilis, Staphylococcus aureus and Streptococcus faecalis), four strains of Gram negative bacteria (Escherichia coli, Neisseria gonorrhoeae, Pseudomonas aeruginosa and Salmonella typhimurium) and three fungi strains (Aspergillus flavus, Aspergillus fumigatus and Candida albicans) isolated from primary agar plates. Antimicrobial activity of the tested samples was determined using a modified Kriby-Bauer disk diffusion method. Briefly, 100 µL of the test bacteria/fungi were grown in 10 mL of fresh media until they reached a count approximately 10^8 cells/mL for bacteria or 10^5 cells/mL for fungi. 100 µL of microbial suspension was spread onto agar plates corresponding to the broth in which they were maintained. The inoculated plates of bacterial strains were incubated at 35–37 °C for 24–48 h, while the inoculated plates of fungal strains such as A. flavus and A. fumigatus were incubated at 25 °C for 48 h and yeast as C. albicans was incubated at 30 °C for 24–48 h.
(§3) The agar disk diffusion (qualitative) method was used in this investigation for determination of the preliminary antibacterial and antifungal activities. The agar used was Mueller-Hinton agar plates that are rigorously tested for composition and pH. Further the depth of the agar in the plate is a factor to be considered in the disk diffusion method.
(§4) Reference drugs: ampicillin was used as a standard antibacterial drug for Gram positive bacteria, gentamicin as a standard antibacterial drug for Gram negative bacteria and amphotericin B as antifungal standard drug.
(§5) Bacterial and fungal strains were spread onto the surface of the agar plates using sterile cotton swabs. For evaluation of antibacterial activities, blank paper disks (Schleicher & Schuell, Alicante, Spain) with a diameter of 8.0 mm were saturated with 10 μL of tested concentration of the stock solutions. Disks were dried and then placed onto inoculated agar plates. The plates of bacterial strains were reincubated at 35–37 °C for 24–48 h, while the plates of fungal strains such as A. flavus and A. fumigatus were reincubated at 25 °C for 48 h and yeast as C. albicans was reincubated at 30 °C for 24–48 h as mentioned above. […] For an accurate analysis, tests were run in triplicate for each strain to avoid any error as described in Table 2.
(§6) Disk diffusion method for filamentous fungi testing by using approved standard method (M02-A11) developed by the CLSI for evaluating the susceptibilities of filamentous fungi to antifungal agents. Disk diffusion method for yeasts developed by using approved standard method (M44-A2) by the CLSI [44]. Agar-based methods such as disk diffusion can be good alternatives because they are simpler and faster than broth-based methods.

Salmonella typhimurium = assay: Disk diffusion, Salmonella typhimurium; type: cell-based; settings: Gram negative, 8.0 mm disks, 10 μL
Experimental: as §1, §2, §3, §4, §5

[1] = system: WI 38 (normal fibroblast cells); assay: In vitro cytotoxicity, SRB cell growth assay, normal cells WI 38; type: cell-based, human; settings: Homo sapiens, WI-38, 48 h, 48 h exposure, non-cytotoxic = IC50 >100 μg/mL
Experimental: (§7) The in vitro cytotoxic activity of the newly synthesized compounds against human breast cell line (MCF7), non-small cell lung cancer NCIH460, CNS cancer SF-268 and WI 38 (normal fibroblast cells) were evaluated using doxorubicin as the reference drug according to the method reported by Skehan et al..
(§8) The newly synthesized compounds were evaluated in vitro against three human cancer cell lines; which are MCF-7 (breast adenocarcinoma), NCI-H460 (non-small cell lung cancer) and SF-268 (CNS cancer), and WI 38 (normal fibroblast cells) were used in this study. MCF-7 was obtained from the European Collection of Cell Cultures (ECACC, Salisbury, UK) but NCI-H460, SF-268 and WI 38 were kindly provided by the National Cancer Institute (NCI, Cairo, Egypt). They grow as monolayer and routinely maintained RPMI-1640 medium supplemented with 5% heat inactivated fetal bovine serum (FBS), 2 mM glutamine and antibiotics (penicillin 100 U/mL, streptomycin 100 µg/mL), at 37 °C in a humidified atmosphere containing 5% CO2. Exponentially growing cells were obtained by plating 1.5 × 10^5 cells/mL for MCF-7 and SF-268, and 0.75 × 10^4 cells/mL for NCI-H460 followed by 24 h of incubation. The effect of the vehicle solvent (DMSO) on the growth of these cell lines was evaluated in all experiments by exposing untreated control cells to the maximum concentration (0.5%) of DMSO used in each assay.
(§9) The effect of compounds on the in vitro growth of human tumor cell lines were evaluated according to the procedure adopted by the National Cancer Institute ([…]) in the “In vitro Anticancer Drug Discovery Screen” that uses the protein-binding dye sulforhodamine B (SRB) to assess cell growth. In the assay protocol, all cells were incubated at 37 °C under humidified atmosphere containing 5% CO2. Briefly, exponentially cells growing in 96-well plates were then exposed for 48 h to five serial concentrations of each compound, starting from a maximum concentration of 150 μg/mL. Following this exposure period adherent cells were fixed, washed and stained. The bound stain was solubilized and the absorbance was measured at 492 nm in a plate reader (Bio-Tek Instruments Inc., Power wave XS, Winston, NC, USA). For each test compound and cell line, a dose response curve was obtained and the inhibitory concentration of 50% (IC50), corresponding to the concentration of the compounds that inhibited 50% of the net cell growth was calculated as described elsewhere. Doxorubicin was used as a positive control and tested in the same manner.

Streptococcus faecalis = assay: Disk diffusion, Streptococcus faecalis; type: cell-based; settings: Gram positive, 8.0 mm disks, 10 μL
Experimental: as §1, §2, §3, §4, §5

Neisseria gonorrhoeae = assay: Disk diffusion, Neisseria gonorrhoeae; type: cell-based; settings: Gram negative, 8.0 mm disks, 10 μL
Experimental: as §1, §2, §3, §4, §5

Staphylococcus aureus = assay: Disk diffusion, Staphylococcus aureus; type: cell-based; settings: Gram positive, 8.0 mm disks, 10 μL
Experimental: as §1, §2, §3, §4, §5

SF-268 (CNS cancer) = assay: In vitro cytotoxicity, SRB cell growth assay, SF-268; settings: Homo sapiens, SF-268, 48 h, read-out: IC50 (μg/mL) SF-268
Experimental: as §7, §8, §9

[2] = system: NCI-H460 (non-small cell lung cancer); assay: In vitro cytotoxicity, SRB cell growth assay, NCI-H460; settings: Homo sapiens, NCI-H460, 48 h, read-out: IC50 (μg/mL) NCI-H460
Experimental: as §7, §8, §9

[3] = system: MCF-7 (breast adenocarcinoma); assay: In vitro cytotoxicity, SRB cell growth assay, MCF-7; settings: Homo sapiens, MCF7, 48 h, read-out: IC50 (μg/mL) MCF-7
Experimental: as §7, §8, §9

Candida albicans = assay: Disk diffusion, Candida albicans; type: cell-based; settings: Fungi, 8.0 mm disks, 10 μL
Experimental: as §1, §2, §3, §4, §5, §6

Escherichia coli = assay: Disk diffusion, Escherichia coli; type: cell-based; settings: Gram negative, 8.0 mm disks, 10 μL
Experimental: as §1, §2, §3, §4, §5

Pseudomonas aeruginosa = assay: Disk diffusion, Pseudomonas aeruginosa; type: cell-based; settings: Gram negative, 8.0 mm disks, 10 μL
Experimental: as §1, §2, §3, §4, §5

Bacillus subtilis = assay: Disk diffusion, Bacillus subtilis; type: cell-based; settings: Gram positive, 8.0 mm disks, 10 μL
Experimental: as §1, §2, §3, §4, §5

Aspergillus fumigatus = assay: Disk diffusion, Aspergillus fumigatus; type: cell-based; settings: Fungi, 8.0 mm disks, 10 μL
Experimental: as §1, §2, §3, §4, §5, §6

Clc1ccc(C=NNc2nc3cc(Br)ccc3nc2Cl)cc1 [Compound 8, 6-Bromo-2-chloro-3-[2-(4-chlorobenzylidene)hydrazinyl]quinoxaline]
Inhibition Zone Diameter (IZ) (mm) Aspergillus flavus (Aspergillus flavus): R (R (IZ = 0 mm))
Inhibition Zone Diameter (IZ) (mm) Salmonella typhimurium (Salmonella typhimurium): 7 mm
IC50 [1]: 10.6 ± 5.51 µg/mL (≈ 26.7 µM)
Inhibition Zone Diameter (IZ) (mm) Streptococcus faecalis (Streptococcus faecalis): 10 mm
Inhibition Zone Diameter (IZ) (mm) Neisseria gonorrhoeae (Neisseria gonorrhoeae): 9 mm
Inhibition Zone Diameter (IZ) (mm) Staphylococcus aureus (Staphylococcus aureus): 9 mm
IC50 (SF-268 (CNS cancer)): 35.3 ± 12.8 µg/mL (≈ 89.2 µM)
IC50 [2]: 26.6 ± 2.63 µg/mL (≈ 67.2 µM)
melting point: 187 to 189 °C
IC50 [3]: 42.2 ± 2.46 µg/mL (≈ 106 µM)
Inhibition Zone Diameter (IZ) (mm) Candida albicans (Candida albicans): R (R (IZ = 0 mm))
Inhibition Zone Diameter (IZ) (mm) Escherichia coli (Escherichia coli): 11 mm
Inhibition Zone Diameter (IZ) (mm) Pseudomonas aeruginosa (Pseudomonas aeruginosa): 9 mm
Inhibition Zone Diameter (IZ) (mm) Bacillus subtilis (Bacillus subtilis): 9 mm
Inhibition Zone Diameter (IZ) (mm) Aspergillus fumigatus (Aspergillus fumigatus): R (R (IZ = 0 mm))

Cc1cc(C)n(-c2nc3cc(Br)ccc3nc2Cl)n1 [Compound 6, 6-Bromo-2-chloro-3-(3,5-dimethyl-1H-pyrazol-1-yl)quinoxaline]
Inhibition Zone Diameter (IZ) (mm) Aspergillus flavus (Aspergillus flavus): R (R (IZ = 0 mm))
Inhibition Zone Diameter (IZ) (mm) Salmonella typhimurium (Salmonella typhimurium): 8 mm
IC50 [1]: 28.2 ± 0.87 µg/mL (≈ 83.7 µM)
Inhibition Zone Diameter (IZ) (mm) Streptococcus faecalis (Streptococcus faecalis): 11 mm
Inhibition Zone Diameter (IZ) (mm) Neisseria gonorrhoeae (Neisseria gonorrhoeae): 11 mm
Inhibition Zone Diameter (IZ) (mm) Staphylococcus aureus (Staphylococcus aureus): 9 mm
IC50 (SF-268 (CNS cancer)): 26.5 ± 2.87 µg/mL (≈ 78.5 µM)
IC50 [2]: 30.5 ± 10.8 µg/mL (≈ 90.3 µM)
melting point: 81 to 83 °C
IC50 [3]: 22.4 ± 10.4 µg/mL (≈ 66.4 µM)
Inhibition Zone Diameter (IZ) (mm) Candida albicans (Candida albicans): R (R (IZ = 0 mm))
Inhibition Zone Diameter (IZ) (mm) Escherichia coli (Escherichia coli): 11 mm
Inhibition Zone Diameter (IZ) (mm) Pseudomonas aeruginosa (Pseudomonas aeruginosa): 9 mm
Inhibition Zone Diameter (IZ) (mm) Bacillus subtilis (Bacillus subtilis): 11 mm
Inhibition Zone Diameter (IZ) (mm) Aspergillus fumigatus (Aspergillus fumigatus): R (R (IZ = 0 mm))
